# Where two headings read alike, the source gives them in different places. Marks after values point to notes of the source that are not given here.
# Tests used:
# E. coli AB1157 [1] = test: Toxicity in E. coli AB1157 (colony forming ability); type: cell-based
# Method: (§1) A well characterized bacterial system was used as an initial screen for radioprotective activity of the novel compounds. A single colony of the bacteria, growing on a plate of LB medium (10 g tryptone, 5 g yeast extract, plus 5 g NaCl in 1 L water), was inoculated into 2 mL LB and incubated overnight. 20 mL LB medium were then inoculated with 600 μL of the overnight culture, and incubated with shaking at 37° C., 250 rpm. The cells were collected and washed with phosphate buffered saline. At this point the bacteria could be irradiated, treated with drug, etc., as outlined below. After dilution of the treated cells to 100 cells per 100 μL, they are plated out and incubated overnight. Cell viability is then measured by colony forming ability.
# The toxicity of the compounds of interest in this system was explored.
# E. coli AB1157 [2] = test: Radioprotection in E. coli AB1157; type: cell-based; conditions: E. coli AB1157, agent 1 hour before irradiation at 0.6 kGy
# Method: Radioprotection in E. coli AB1157
# as §1
# Growth curves were generated for the bacteria in the absence of any treatment to provide experience with basic handling as well as important baseline information. The radiation dose response of the system was investigated irradiating bacterial cultures in a Shepherd Mark I ^137Cs irradiator over a dose range of 0 to 1 kGy. The dose-response curves are linear and reproducible from day to day.
# Radioprotection experiments were also conducted in the bacterial system. […] Surviving fraction compared to that seen in control (untreated) cells, which were not irradiated, was then calculated.
# Ugt1a1 = test: Northern blot of liver Ugt1a1 mRNA after ip dosing; type: in vivo, mice; conditions: mean ± SEM
# Method: (§2) Linking efficacy to biochemical parameters and a mechanism was limited in the initial study by only two parameters, [Se] and GPx activity. The in-vivo effects of selenazolidine compounds were then evaluated using, in addition to GPx, glutathione S-transferases (GSTs), quinone oxidoreductases (NQORs), UDP-glucuronosyltransferases (UGTs), and microsomal epoxide hydrolase (mEH). To investigate transcriptional changes of these classes of enzymes, it was necessary to develop a battery of cDNA probes for use in Northern blot analysis of RNA extracted from treated animals (Table 2).
# (§3) Whether the selenaproline compounds had the ability to up-regulate the transcription of Phase II and/or other “protective” enzymes was first evaluated following a single dose of each (Table 3). […] The experiment was repeated but with a 7-day treatment regimen (Table 4), the time period for which the compounds were given in the diet before NNK administration in the tumor experiment reported in Table 1. […] With multiple doses, SCA induced Ugt1a9, an mRNA that was not changed with a single dose. […] The elevation in the Gst-mu transcript was unique to multiple OSCA treatment. The elevation of the GST-alpha mRNA was also seen with SCA treatment. Microsomal epoxide hydrolase mRNA was robustly elevated by multiple doses of all three selenaproline compounds, an effect not anticipated from the single dose experiment where not even minor changes were apparent.
# Gst-mu = test: Northern blot of liver Gst-mu mRNA after ip dosing; type: in vivo, mice; conditions: mean ± SEM
# Method: as §2, §3
# [3] = sALT (hepatotoxicity) after 7 daily ip doses; type: in vivo; parameters: unit not given here; conditions: 7 daily doses ip, 1.25 mg Se/kg, with corn oil; untreated mice 37.5 ± 2.9
# Excerpt: (§4) Many of the mRNA changes seen with a single dose were not sustained with multiple dosing. Changes in Ugt transcripts after multiple dosing were noticeably absent. Unique to BSCA among the four new compounds investigated was its ability to induce Gst-alpha, Gst-mu and GPx mRNAs. For the Gst-alpha transcripts, which appeared elevated by corn oil, the BSCA increase was much greater than the vehicle alone (8-fold versus 2-fold) and was statistically significant (p<0.05). BSCA shared with PhOHSCA the ability to elevate mEH mRNA.
# Ugt1a6 = test: Northern blot of liver Ugt1a6 mRNA after ip dosing; type: in vivo, mice; conditions: mean ± SEM
# Method: as §2, §3
# GPx [4] = test: Northern blot of liver GPx mRNA after ip dosing; type: in vivo, mice; conditions: mean ± SEM
# Method: as §2, §3
# Gst-alpha = test: Northern blot of liver Gst-alpha mRNA after ip dosing; type: in vivo, mice; conditions: mean ± SEM
# Method: as §2, §3
# mEH = test: Northern blot of liver mEH mRNA after ip dosing; type: in vivo, mice; conditions: mean ± SEM
# Method: as §2, §3
# [5] = tested on: 'protective' enzyme mRNAs; test: Northern blot of 'protective' enzyme mRNAs (all probes) after ip dosing; type: in vivo, mice; conditions: 7 daily doses ip, with corn oil
# Method: as §2, §4
# Ugt1a9 = test: Northern blot of liver Ugt1a9 mRNA after ip dosing; type: in vivo, mice; conditions: for Ugt1a9 mRNA: mean ± SEM
# Method: as §2, §3
# [6] = Body weight gain and liver weight in four-month feeding study; type: in vivo; conditions: mice, diet 15 ppm Se, NNK
# Method: (§5) Where indicated, mice (16 g) were given diets fortified with SCA, MSCA or OSCA (15 ppm Se) for 1 week prior to NNK (10 umol, ip). Two other groups received the unmodified AIN-76A diet, with and without NNK administration. All groups were maintained on their pretreatment diet until the animals were sacrificed after 16 weeks. Liver GPx activity is expressed as μmol NADPH oxidized [in regenerating GSH]/min/mg 10,000 g×20 min supernatant protein; RBC activity as μmol/min/mg RBC lysate hemoglobin.
# GPx [7] = test: Hepatic cytosolic GPx (H202) activity after 7 daily ip doses; type: in vivo, mice; conditions: 7 daily doses ip, hepatic cytosol; naive 894 ± 36
# GST = test: Hepatic cytosolic GST (CDNB) activity after 7 daily ip doses; type: in vivo, mice; conditions: 7 daily doses ip, hepatic cytosol; naive 5248 ± 503
# GPx [8] = test: Hepatic and RBC (tButylOOH) GPx activity in four-month feeding study; type: in vivo; conditions: mice, diet 15 ppm Se, NNK; for Hepatic (tButylOOH) GPx: liver
# Method: (§6) Three novel selenazolidines, 2-methyl-, 2-oxo- and 2-unsubstituted (i.e., selenaproline) selenazolidine-4[R]-carboxylic acid (MSCA, OSCA, and SCA respectively) that had been synthesized as prodrugs of selenocysteine were evaluated for their potential to act as cancer chemopreventive agents. [Se] and GPx activity were evaluated.
# as §5
# NNK lung tumor = NNK lung tumor four-month feeding study; type: in vivo; conditions: mice, diet 15 ppm Se from 1 week prior to NNK (10 umol, ip), sacrificed after 16 weeks
# Method: as §6, §5
# [9] = 7 daily doses ip, 1.25 mg Se/kg, with corn oil, liver RNA 24 hours after the last dose
# [10] = 1 dose ip, 1.25 mg Se/kg in corn oil, liver RNA 24 hours after dosing
# [11] = 1 dose ip, 1.25 mg Se/kg, liver RNA 24 hours after dosing
# [12] = 7 daily doses ip, 1.25 mg Se/kg, liver RNA 24 hours after the last dose
# [13] = E. coli AB1157, cell viability by colony forming ability
compound,measurement,setting,value
"NCCS [cysteamine, reference compound]",Toxicity in the bacterial system,E. coli AB1157 [1],profound toxicity
"NC1CCSC1=O (centres unmarked) [HCTL, homocysteine thiolactone]",Radioprotection (surviving fraction),E. coli AB1157 [2],greatest amount of protection
"O=C(O)C1C[Se]C(C2CCCCC2)N1 (mixture of isomers) [ChSCA, 2-cyclohexyl-SCA]",Ugt1a1 mRNA,Ugt1a1; [9],1.20 ± 0.17 fold change from naive
same,Gst-mu mRNA,Gst-mu; [10],1.20 ± 0.15 fold change from naive
same,Gst-mu mRNA,Gst-mu; [9],1.32 ± 0.21 fold change from naive
same,sALT,[3],40.0 ± 1.7
same,Ugt1a6 mRNA,Ugt1a6; [9],1.22 ± 0.17 fold change from naive
same,GPx mRNA,GPx [4]; [10],1.20 ± 0.15 fold change from naive
same,GPx mRNA,GPx [4]; [9],2.26 ± 0.66 fold change from naive
same,Gst-alpha mRNA,Gst-alpha; [10],1.73 ± 0.20 fold change from naive
same,Gst-alpha mRNA,Gst-alpha; [9],1.99 ± 0.77 fold change from naive
same,mEH mRNA,mEH; [10],1.34 ± 0.41 fold change from naive
same,mEH mRNA,mEH; [9],1.31 ± 0.19 fold change from naive
same,Induction of 'protective' enzyme mRNAs (any),[5],failed to induce any mRNAs
same,Ugt1a9 mRNA,Ugt1a9; [10],3.04 ± 0.55 fold change from naive
same,Ugt1a9 mRNA,"Ugt1a9; 1 dose ip, 1.25 mg Se/kg in corn oil, liver RNA 24 hours after dosing, listed as CnSCA",statistically elevated
same,Ugt1a9 mRNA,Ugt1a9; [9],1.16 ± 0.13 fold change from naive
2-(2-hydroxyphenyl)-SCA [PhOHSCA],Ugt1a1 mRNA,Ugt1a1; [9],0.77 ± .04 fold change from naive
same,Gst-mu mRNA,Gst-mu; [10],1.18 ± 0.32 fold change from naive
same,Gst-mu mRNA,Gst-mu; [9],1.54 ± 0.23 fold change from naive
same,sALT,[3],42.4 ± 3.0
same,Ugt1a6 mRNA,Ugt1a6; [9],0.99 ± 0.14 fold change from naive
same,GPx mRNA,GPx [4]; [9],1.51 ± 0.50 fold change from naive
same,Gst-alpha mRNA,Gst-alpha; [10],1.49 ± 0.22 fold change from naive
same,Gst-alpha mRNA,Gst-alpha; [9],1.91 ± 0.71 fold change from naive
same,mEH mRNA,mEH; [10],1.38 ± 0.48 fold change from naive
same,Ugt1a9 mRNA,Ugt1a9; [10],1.65 ± 0.32 fold change from naive
same,Ugt1a9 transcript expression compared to the corn oil effect,"Ugt1a9; 1 dose ip, in corn oil, comparison with corn oil alone",significantly reduced
same,Ugt1a9 mRNA,Ugt1a9; [9],1.06 ± .14 fold change from naive
"O=C1N[C@H](C(=O)O)C[Se]1 [OSCA, 2-Oxoselenazolidine-4(R)-carboxylic acid]",Gst-mu mRNA,Gst-mu; [11],1.38 ± 0.33 fold change from naive
same,Body wt gain (%),[6],39.9* %
same,Liver weight,[6],1.02 ± 0.02 g
same,GPx (1.5 kb) mRNA,GPx [4]; [11],0.80 ± 0.22 fold change from naive
same,GPx mRNA,GPx [4]; [12],1.13 ± 0.39 fold change from naive
same,GPx (H202) activity,GPx [7],"880 ± 72 nmol/mg cytosol (100,000 g supernatant) protein/min"
same,Gst-alpha mRNA,Gst-alpha; [11],1.61 ± 0.53 fold change from naive
same,mEH mRNA,mEH; [11],0.88 ± 0.19 fold change from naive
same,mEH mRNA,mEH; [12],2.91 ± 1.48 fold change from naive
same,GST (CDNB) activity,GST,"6887 ± 1142 nmol/mg cytosol (100,000 g supernatant) protein/min"
same,RBC (tButylOOH) GPx,GPx [8],281 ± 24 μmol/min/mg RBC lysate hemoglobin
same,Hepatic (tButylOOH) GPx,GPx [8],"518 ± 59 μmol NADPH oxidized/min/mg 10,"
"NCCCN1CCSC1=O [2-oxo prodrug, 3-(3-Aminopropyl)-2-thiazolidinone]",Toxicity in the bacterial system,E. coli AB1157 [1]; [13],neither WR-1065 nor its 2-oxo prodrug produced any toxicity
"O=C(O)C1C[Se]CN1 (centres unmarked) [SCA, selenazolidine-4-carboxylic acid]",Ugt1a1 mRNA,Ugt1a1; [11],1.03 ± 0.18 fold change from naive
same,Ugt1a1 mRNA,Ugt1a1; [12],2.25 ± 0.25 fold change from naive
same,Gst-mu mRNA,Gst-mu; [11],1.28 ± 0.09 fold change from naive
same,Gst-mu mRNA,Gst-mu; [12],0.58 ± 0.11 fold change from naive
same,Body wt gain (%),[6],51.1%
same,Liver weight,[6],1.18 ± 0.02 g
same,Ugt1a6 mRNA,Ugt1a6; [11],1.01 ± 0.29 fold change from naive
same,Ugt1a6 mRNA,Ugt1a6; [12],1.01 ± 0.07 fold change from naive
same,GPx (1.5 kb) mRNA,GPx [4]; [11],1.12 ± 0.04 fold change from naive
same,GPx mRNA,GPx [4]; [12],1.55 ± 0.76 fold change from naive
same,GPx (H202) activity,GPx [7],"862 ± 81 nmol/mg cytosol (100,000 g supernatant) protein/min"
same,Gst-alpha mRNA,Gst-alpha; [11],1.15 ± 0.28 fold change from naive
same,mEH mRNA,mEH; [11],1.36 ± 0.40 fold change from naive
same,mEH mRNA,mEH; [12],3.25 ± 1.80 fold change from naive
same,GST (CDNB) activity,GST,"6576 ± 595 nmol/mg cytosol (100,000 g supernatant) protein/min"
same,RBC (tButylOOH) GPx,GPx [8],253 ± 33 μmol/min/mg RBC lysate hemoglobin
same,Hepatic (tButylOOH) GPx,GPx [8],"409 ± 46 μmol NADPH oxidized/min/mg 10,"
same,NNK Tumors,NNK lung tumor,6.7 ± 0.8
same,Ugt1a9 mRNA,Ugt1a9; [11],1.35 ± 0.50 fold change from naive
"O=C(O)C1C[Se]C(c2ccccc2)N1 (mixture of isomers) [PhSCA, 2-phenyl-SCAS]",Ugt1a1 mRNA,Ugt1a1; [10],1.41 ± 0.30 fold change from naive
same,Ugt1a1 mRNA,Ugt1a1; [9],1.32 ± 0.12 fold change from naive
same,Gst-mu mRNA,Gst-mu; [10],0.74 ± 0.16 fold change from naive
same,Gst-mu mRNA,Gst-mu; [9],1.01 ± 0.27 fold change from naive
same,sALT,[3],37.3 ± 1.4
same,Ugt1a6 mRNA,Ugt1a6; [10],1.78 ± 0.54 fold change from naive
same,Ugt1a6 mRNA,Ugt1a6; [9],0.96 ± 0.04 fold change from naive
same,GPx mRNA,GPx [4]; [10],0.74 ± 0.16 fold change from naive
same,GPx mRNA,GPx [4]; [9],1.46 ± 0.35 fold change from naive
same,Gst-alpha mRNA,Gst-alpha; [10],0.63 ± 0.14 fold change from naive
same,Gst-alpha mRNA,Gst-alpha; [9],2.29 ± 0.68 fold change from naive
same,mEH mRNA,mEH; [10],0.98 ± 0.27 fold change from naive
same,mEH mRNA,mEH; [9],0.80 ± 0.15 fold change from naive
same,Induction of 'protective' enzyme mRNAs (any),[5],failed to induce any mRNAs
same,Ugt1a9 mRNA,Ugt1a9; [10],2.14 ± 0.54 fold change from naive
same,Ugt1a9 mRNA,Ugt1a9; [9],0.83 ± 0.08 fold change from naive
"NCCCNCCS [WR-1065, reference compound]",Toxicity in the bacterial system,E. coli AB1157 [1]; [13],neither WR-1065 nor its 2-oxo prodrug produced any toxicity
same,Radioprotection (surviving fraction),E. coli AB1157 [2],greatest amount of protection
"O=C1NCCS1 [2-oxocysteamine prodrug, 2-Thiazolidinone]",Toxicity in the bacterial system,E. coli AB1157 [1]; [13],completely eliminated the profound toxicity observed with cysteamine itself
